Tested on: CHO^R cells
Test: Reversal of multidrug resistance: cell growth of vinblastine-resistant CHO^R cells, Coulter counter cell count
[1] = 72 h, read-out: % Inhibition of Cell Growth Compound Only

Row | SMILES | inhibition at 0.1 µg/mL [1] | inhibition at 1 µg/mL [1] | inhibition at 5 µg/mL [1] | inhibition at 10 µg/mL [1] | % Inhibition of Cell Growth Compound + VLB (compound 0.1 µg/ml + vinblastine 0.2 µg/ml, 72 hr) | % Inhibition of Cell Growth Compound + VLB (compound 1 µg/ml + vinblastine 0.2 µg/ml, 72 hr) | % Inhibition of Cell Growth Compound + VLB (compound 5 µg/ml + vinblastine 0.2 µg/ml, 72 hr) | % Inhibition of Cell Growth Compound + VLB (compound 10 µg/ml + vinblastine 0.2 µg/ml, 72 hr) | effect on cell growth (VLB alone at 0.2 µg/ml, 72 hr)
1 | CCCc1[nH]c(=O)oc1-c1ccnc2ccccc12 [4-Propyl-5-(4-Quinolinyl)-1-(3H)-Oxazolone] | 0% | 0% | 0% | 14% | 4% | 43% | 93% | 93% | 
2 | CC[C@]1(O)C[C@@H]2CN(CCc3c([nH]c4ccccc34)[C@@](C(=O)OC)(c3cc4c(cc3OC)N(C)[C@H]3[C@@](O)(C(=O)OC)[C@H](OC(C)=O)[C@]5(CC)C=CCN6CC[C@]43[C@@H]65)C2)C1 [VLB, vinblastine, reference compound] |  |  |  |  |  |  |  |  | did not have any effect on cell growth

Source: patent EP0428107A2, “Use of quinolyl-and isoquinolyloxanole-2-ones for the production of a medicament for the treatment of multi-drug resistant tumors” (MERRELL DOW PHARMACEUTICALS INC., priority 1989, dated 1991)
